Measured values published in BindingDB's records for doi:10.1016/j.bmcl.2008.02.009 (Novartis Institutes For Biomedical Research, 2008).

How the values were obtained:
Isoprenyl transferase = biological target: T1, Isoprenyl transferase (Streptococcus pneumoniae serotype 4 (strain ATCC BAA-334 / TIGR4), UniProt Q97SR4); assay: Inhibition of Streptococcus pneumoniae UPPS
T1 sequence (Q97SR4 whole entry): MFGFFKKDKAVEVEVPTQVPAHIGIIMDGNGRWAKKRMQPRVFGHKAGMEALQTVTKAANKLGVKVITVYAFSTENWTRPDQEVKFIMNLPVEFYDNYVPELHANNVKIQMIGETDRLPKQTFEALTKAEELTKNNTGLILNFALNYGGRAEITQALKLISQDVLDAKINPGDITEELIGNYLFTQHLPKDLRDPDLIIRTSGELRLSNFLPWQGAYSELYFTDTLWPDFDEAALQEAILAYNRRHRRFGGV

[1] = biological target: T2, Farnesyl pyrophosphate synthase (Homo sapiens, UniProt P14324); assay: Inhibition of human FPPS
T2 sequence (P14324 whole entry): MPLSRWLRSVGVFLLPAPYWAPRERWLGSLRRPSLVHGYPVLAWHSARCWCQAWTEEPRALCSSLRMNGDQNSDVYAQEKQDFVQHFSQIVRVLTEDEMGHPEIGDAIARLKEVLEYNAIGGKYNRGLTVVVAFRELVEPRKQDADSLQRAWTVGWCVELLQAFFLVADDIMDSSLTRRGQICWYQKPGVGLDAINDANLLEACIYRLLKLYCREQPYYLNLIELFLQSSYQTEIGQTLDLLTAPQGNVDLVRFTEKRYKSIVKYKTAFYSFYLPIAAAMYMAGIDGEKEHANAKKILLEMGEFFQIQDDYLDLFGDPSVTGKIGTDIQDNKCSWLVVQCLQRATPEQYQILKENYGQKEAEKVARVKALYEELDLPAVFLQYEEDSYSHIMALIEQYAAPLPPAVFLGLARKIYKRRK

Row | Compound | IC50 (Isoprenyl transferase) | IC50 [1]
1 | O=C1CC(Cc2ccccc2)NC(=O)C1C(=O)Nc1ccc(Nc2ccccc2)cc1 (stereo unspecified) | 1.1 µM | –
2 | O=C(Nc1ccc(-c2ccccc2)cc1)C1C(=O)OC(Cc2ccccc2)C1=O (stereo unspecified) | 1.1 µM | –
3 | O=C1CC(Cc2ccccc2)NC(=O)C1C(=O)Nc1ccc(Oc2ccccc2)cc1 (stereo unspecified) | 0.11 µM | > 50 µM
4 | O=C1CC(Cc2ccccc2)NC(=O)C1C(=O)Nc1ccc(N2CCCCC2)cc1 (stereo unspecified) | 0.11 µM | > 50 µM
